Assay results: patent US6723897B2, “Methods for controlling gibberellin levels” (Monsanto Technology, LLC, priority 1998, dated 2004)
“Also recorded” adds a separate entry of the source.

Experiments:
Assay type in all cases: in vivo, Glycine max
[1] = tested on: constitutively GA-deficient transgenic dwarf soybean line 719; experiment: Experiment I greenhouse test, seed imbibition, GA-deficient soybean; design: Observation on Transgenic Line 719: key: −1: treated plants are shorter as compared to untreated plants; 0: treated plants had the same stature as untreated plants; 1: treated plants are slightly elongated as compared to untreated plants; 2: treated plants are moderately elongated as compared to untreated plants; 3: treated plants are highly elongated as compared to untreated plants; 4: treated plants are extremely elongated as compared to untreated plants; conditions: 0.25 mg/ml; for effect in both the constitutive transgenic dwarf and wild-type soybean lines: imbibition, lines 719 and A3237; for Observation on Transgenic Line 719: seeds imbibed 5 hours
Excerpt: Seeds are covered with 0.5″ of vermiculite.

[2] = tested on: constitutively GA-deficient transgenic dwarf soybeans (line 719); experiment: Summary of first two greenhouse experiments, rescue of GA-deficient soybeans; design: key: +: transgenic soybeans are rescued; 0: transgenic soybeans are not rescued
Experimental: Compounds are first prepared as 25 mg/ml solutions in ethanol as described above, and then diluted into 40 ml of water to prepare the final 0.25 mg/ml treatment solutions. Visual observations on solubilities (milky, clear, etc.) of the treatment solutions are noted. The treatment solutions are divided into two 20 ml portions, each in 50 ml plastic centrifuge tubes. In addition to treating seeds with solutions containing the test compounds, untreated seeds and seeds imbibed in ethanol-water solution (300 μl ethanol in 30 mls of water) are also included in this experiment as controls. In the latter case, 20 seeds are imbibed in 30 mls of solution for six hours.
Two soybean varieties are selected for testing: constitutively GA-deficient transgenic dwarf soybean line 719 (plasmid pMON29801, constitutive FMV promoter/asCPScc; which is a mixture of 719−2 and 719+17), and A3237, the wild-type parent material. […] After imbibition, seeds are removed from the test tubes, placed on wax paper to dry, and planted in bread pans containing farm soil amended with fertilizer at 20 seeds/pan. Seeds are covered with 0.5″ of vermiculite. Pans are transferred to the greenhouse, which had day/night temperatures of 86/68° F. (30/20° C.), and subirrigated. Illumination is at a light intensity of 300-400 μmolm^−2s^−1 photosynthetic photon flux; 16 hours light/8 hours dark. Subsequent waterings are also through sub-irrigation until the test is terminated three weeks later. Observations included the number of dwarf, intermediate, and tall plants; plant height; uniformity of rescue; and any visual effects.
All compounds are tested at final concentrations of 0.25, 0.025, and 0.0025 mg/ml except for GA9, which is tested at 0.125, 0.0125, and 0.00125 mg/ml. (The compounds are tested in Experiment I at only one concentration, i.e., 0.25 mg/ml). Test tubes contained […] of ethanol solution per tube. Final volumes are made up to 30 ml with deionized water. After shaking, the treatment solutions (15 ml each) are transferred to each of two 50 ml test tubes. Treatments 1 to 27 are performed on wild-type line A3237; treatments 28 to 54 are performed on constitutively GA-deficient transgenic dwarf soybean line 719 (a mixture of 719−2 and 719+17). Twenty seeds are used in each treatment. Dry seed, ethanol/water-imbibed seed (1% ethanol in water, v/v), and water-imbibed seeds are included as controls. Seeds are imbibed for 6 hours in the test solutions, then planted in bread pans containing Metromix 350 (The Scotts Company, Marysville, Ohio), and covered with 0.5″ Metro-mix. Covered pans are transferred to the greenhouse and subirrigated. Illumination is at a light intensity of 300-400 μmolm^−2s^−1 photosynthetic photon flux; 16 hours light/8 hours dark. Subsequent waterings are also through sub-irrigation until the test is terminated three weeks later. Observations included the number of dwarf, intermediate, and tall plants; plant height; uniformity of rescue; and any visual effects. Digital photographs are also taken.

[3] = tested on: constitutively GA-deficient transgenic dwarf soybean line 719; experiment: Experiment IV field test, seed imbibition, compacted soil; conditions: for No. of Dwarfs Not Rescued / Total Plants: imbibed 8 hours; for Total Plants: 25 seeds planted; for % of Dwarfs Rescued: relative to 8.5 true dwarfs per plot; for field result on line 719 in words: over the rates tested (0.0025-0.25 mg/ml)
Excerpt: The objective of these experiments is to determine if there is a greenhouse to field translation of results with selected GA compounds with respect to rescue of constitutively GA-deficient transgenic dwarf soybeans and elongation of wild-type plants. […] For the first field trial, the solutions previously used for the second greenhouse test, and stored in the freezer, are employed. […] For comparison, freshly prepared solutions of GA3 are also employed. The compounds tested included kaurenoic acid, fresh GA3, stored GA3, GA3-3-acetate, GA5, GA9, and GA12. […] Seeds of line […] are imbibed for 8 hours. Untreated dry seeds served as controls. After imbibition, the remaining solutions are returned to the freezer. Seeds are kept on the benchtop at room temperature overnight. […] Untreated dry seeds served as controls. Following planting line 719, all plots (both […] and line 719) are compacted by driving an all-terrain vehicle over the planted rows twice, and watered. All GA solutions are discarded. The results are shown in Table 15 for constitutively GA-deficient transgenic dwarf line 719 only as insufficient […] germinated to make any useful observations. Observations included number of plants that germinated, number rescued, and visual observations. Two points should be noted concerning the data in Table 15. […] Next, the number of dwarfs not rescued in any treatment is subtracted from 8.5.

[4] = tested on: constitutively GA-deficient transgenic dwarf soybean line 719; experiment: Fifth and sixth field tests, emergence after seed imbibition; conditions: for Total Emerged: 50 seeds imbibed 5 hours
Experimental: Fresh stock solutions of compounds are prepared for this test. Kaurenoic acid is tested at 0.025 and 0.25 mg/ml; GA3 is tested at 0.025, 0.25, and 0.5 mg/ml; GA3-3-acetate at 0.025 and 0.25 mg/ml; GA5 at 0.025 and 0.25 mg/ml; GA9 at 0.025 and 0.04 mg/ml; and GA12 at 0.025 and 0.25 mg/ml. Stock solutions are prepared in ethanol in 50 ml plastic centrifuge tubes; deionized water is then added to make up the volumes to 30 ml. The final solutions contained 300 μl ethanol in 30 mls. […] Seeds are imbibed for 6 hours, and planted 1″ deep in a single row in moist to wet soil. They are then covered with dry soil, and the row is compacted twice with an all-terrain vehicle. Untreated dry seeds served as controls. The GA solutions are placed on dry ice until reuse the next day.
The next day, additional seeds of constitutive transgenic dwarf line 719 (50 seeds/treatment) are imbibed in the remaining treatment solutions for 5 hours, and planted in moist soil. The rows are compacted twice.

[5] = 0.0025 mg/ml solution (ethanol-water)
[6] = 0.025 mg/ml solution (ethanol-water)
[7] = 0.25 mg/ml solution (ethanol-water)

Compound | effect in both the constitutive transgenic dwarf and wild-type soybean lines [1] | Observation on Transgenic Line 719 [1] | Rescue of GA-deficient soybeans [2, 5] | Rescue of GA-deficient soybeans [2, 6] | Rescue of GA-deficient soybeans [2, 7] | field result on line 719 in words [3] | No. of Dwarfs Not Rescued ([3]; stored solution 0.0025 mg/ml) | Total Plants ([3]; stored solution 0.0025 mg/ml) | % of Dwarfs Rescued ([3]; stored solution 0.0025 mg/ml) [%] | No. of Dwarfs Not Rescued ([3]; stored solution 0.025 mg/ml) | Total Plants ([3]; stored solution 0.025 mg/ml) | % of Dwarfs Rescued ([3]; stored solution 0.025 mg/ml) [%] | Visual Observations on Transgenic Line 719 ([3]; stored solution 0.25 mg/ml) | No. of Dwarfs Not Rescued ([3]; stored solution 0.25 mg/ml) | Total Plants ([3]; stored solution 0.25 mg/ml) | % of Dwarfs Rescued ([3]; stored solution 0.25 mg/ml) [%] | Total Emerged ([4]; 0.025 mg/ml) | Total Emerged ([4]; 0.25 mg/ml) | Visual Observations on Transgenic Line 719 ([4]; 0.025 mg/ml) | further results
C=C1C[C@]23C[C@@]1(O)CC[C@H]2[C@@]12C=C[C@H](O)[C@@](C)(C(=O)O1)[C@H]2[C@@H]3C(=O)O [GA3, gibberellic acid] | excessive elongation | 3 | + | + | + | poor emergence at all rates | 0 | 14 | 100 | 0 | 9 | 100 | Extremely elongated plants | 0 | 7 | 100 | 15 | 9 | – | No. of Dwarfs Not Rescued ([3]; fresh solution 0.0025 mg/ml): 0; Total Plants ([3]; fresh solution 0.0025 mg/ml): 13; % of Dwarfs Rescued ([3]; fresh solution 0.0025 mg/ml): 100%; No. of Dwarfs Not Rescued ([3]; fresh solution 0.025 mg/ml): 1; Total Plants ([3]; fresh solution 0.025 mg/ml): 13; % of Dwarfs Rescued ([3]; fresh solution 0.025 mg/ml): 88.2%; No. of Dwarfs Not Rescued ([3]; fresh solution 0.25 mg/ml): 0; Total Plants ([3]; fresh solution 0.25 mg/ml): 1; % of Dwarfs Rescued ([3]; fresh solution 0.25 mg/ml): 100%; Visual Observations on Transgenic Line 719 ([3]; stored solution 0.025 mg/ml): Extremely elongated plants; Total Emerged ([4]; 0.5 mg/ml): 1
C=C1C[C@]23C[C@H]1CC[C@H]2[C@]1(C)CCC[C@@](C)(C(=O)O)[C@H]1[C@@H]3C(=O)O [GA12] | rescue (elongated hypocotyls) with very little elongation | 1 | 0 | + | + | good emergence | 5 | 20 | 41.2 | 4 | 22 | 52.9 | – | 0 | 20 | 100 | 28 | 9 | – | –
C=C1C[C@]23C[C@@]1(O)CC[C@H]2[C@@]12C=C[C@H](OC(C)=O)[C@@](C)(C(=O)O1)[C@H]2[C@@H]3C(=O)O [GA3-3-acetate] | excessive elongation | 3 | + | + | + | excessive elongation, and no uniformity in plant height | 0 | 21 | 100 | 0 | 1 | 100 | Extremely elongated plants | 0 | 3 | 100 | 2 | 1 | – | Visual Observations on Transgenic Line 719 ([4]; 0.25 mg/ml): Overelongation
C=C1C[C@]23C[C@@]1(O)CC[C@H]2[C@@]12CC=C[C@@](C)(C(=O)O1)[C@H]2[C@@H]3C(=O)O [GA5] | excessive elongation | 4 | + | + | + | slight to excessive elongation, and no uniformity in plant height | 8 | 25 | 5.9 | 0 | 20 | 100 | Extremely elongated plants | 0 | 7 | 100 | 21 | 3 | good emergence with good rescue | –
C=C1C[C@]23C[C@H]1CC[C@H]2[C@@]12CCC[C@@](C)(C(=O)O1)[C@H]2[C@@H]3C(=O)O [GA9] | excessive elongation | 3 | – | – | + | slight elongation, and no uniformity in height | 7 | 20 | 17.6 | 0 | 22 | 100 | Slightly elongated plants | 0 | 17 | 100 | 24 | – | good emergence with good rescue; also recorded: No dwarfs in plots | Rescue of GA-deficient soybeans ([2]; 0.00125 mg/ml solution (ethanol-water)): 0; Rescue of GA-deficient soybeans ([2]; 0.0125 mg/ml solution (ethanol-water)): +; Rescue of GA-deficient soybeans ([2]; 0.125 mg/ml solution (ethanol-water)): +; Total Emerged ([4]; 0.04 mg/ml): 11
